Assay [1] relates to yeast cells specific to estrogens. Kind of assay: Calibration curves for 17-β estradiol with immobilized yeast biosensor. It is filed as cell-based. The conditions noted are these: yeast immobilized in matrix (2% atelocollagen, 0.5% polydimethylsiloxane); similar to liquid cultures. An excerpt:
For example, the device employs S. cerevisiae cells specific for compounds with estrogenic/androgenic activity: for this aim an integrative vector with a regulatory element containing two or more tandem copies of the Androgen or Estrogen Responsive Element (ARE/ERE) upstream of the gene encoding for the bioluminescent reporter protein (e.g., luciferase from P. pyralis) and a vector encoding for human androgen or estrogen receptor were introduced in S. cerevisiae cells (A new highly specific and robust yeast androgen bioassay for the detection of agonists and antagonists Toine F. H. Boyce, Richard J. R. Helsdingen, Astrid R. M. Hamers, Majorie B. M. van Duursen, Michel W. F. Nielen, and Ron L. A. P. Hoogenboom). In this work, GFP is used as fluorescent reporter gene that also finds application in the present invention.
Analogously to Example 3, but with slight modifications to single components of the immobilization matrix (2% atelocollagen and 0.5% polydimethylsiloxane), a biosensor based on yeast cells specific to estrogens was immobilized.
Recombinant cells are grown in SC liquid culture (synthetic complete, selective for plasmid auxotrophies) at 30° C. up to an optical density at 600 nm of 0.6. Then, cells are immobilized as previously described.

Assay [2] has as its system recombinant E. coli cells specific for Cu^2+. Kind of assay: Calibration curve for copper with immobilized bioluminescent biosensor and control strain. It is filed as cell-based. The conditions noted are these: E. coli immobilized in the matrix; signal corrected with control strain constitutively expressing firefly luciferase. The method, then: For each calibration curve a limit of detection is calculated (LOD) according to the standard deviation on the blank signal measured with the calibration curve. It is provided by the analyte concentration corresponding to the signal XLOD:
A calibration curve for copper was performed by employing recombinant E. coli cells specific for Cu^2+ and a control strain that constitutively express firefly luciferase. The use of a control strain allows to correct the analytical signal with a detection limit of 0.05 ppm for Cu^2+.
Cells are grown in selective liquid medium at 37° C. (e.g., Luria Bertani Broth with antibiotic for plasmid maintenance) for each strain up to an optical density at 600 nm in the range 0.6-0.8.
Then, a buffered solution at pH 6.5-7.5 is added to each cell suspension containing nutrients and is mixed 1:2-1:4 with the immobilization matrix.
A solution containing 1% atelocollagen in PBS (NaCl 137 mM, KCl 2.7 mM, NaH2PO4 1.4 mM, Na2HPO4 4.3 mM) at pH 7.4 with decorin final concentration 15% w/w atelocollagen.
Polyvinylpyrrolidone (PVP) and modified polysiloxanes (e.g., polydimethylsiloxane, tetraethyl-orthosilicate) are added to a final concentration of 1% and 0.4%, respectively.

Consider `C[C@]12CC[C@@H]3c4ccc(O)cc4CC[C@H]3[C@@H]1CC[C@@H]2O` [17-β estradiol], for which, in assay [1], the limit of detection is 10 pM.

With `[Cu+2]` [Cu^2+], the detection limit in assay [2] is reported as 0.05 ppm.
